The values below come from paper PMC4550478, “Metronidazole-triazole conjugates: Activity against Clostridium difficile and parasites” (European Journal of Medicinal Chemistry, 2015).

In brackets after ≈: the same amount, converted by molar mass. Read-outs that look alike come from different tables or passages of the source.

In experiment [1] the test system is C. difficile NAP1/027 M7404. As to the kind of experiment: MIC broth microdilution, C. difficile NAP1/027 M7404. Type of experiment: cell-based, Clostridium difficile. As to conditions: NAP1/027 (footnote d: M7404), MtzS, 24 h, median of at least n = 4; for MIC: Clostridioides difficile, NAP1/027M7404. On the procedure: All compounds were tested for activity against a set of anaerobic C. difficile bacteria (630 ATCC BAA-1382, NAP1/027 M7404, NAP1/027 ATCC BAA-1803, VPI10463 ATCC 43255, CD26A54_S and CD26A54_R) and representative ESKAPE pathogens S. aureus (MRSA ATCC 43300), E. coli (ATCC 25922), K. pneumoniae (ATCC 700603), A. baumannii (ATCC 19606) and P. aeruginosa (ATCC 27853) using a standard broth microdilution assay. Selected compounds were tested for activity against H. pylori strains (26695, and clinical isolates MtzS 13/25, MtzR 98/285 and MtzR 13/61) using agar plate dilution, and for antimicrobial activity against […] Gram-positive bacterial strains: Enterococcus faecalis (VanA clinical isolate), Enterococcus faecium (MDR VanA ATCC 51559), Streptococcus pneumoniae (MDR ATCC 700677), S. aureus (MRSA ATCC 43300, MRSA clinical isolate, MRSA/DRSA clinical isolate, GISA NARSA NRS 1, GISA NARSA NRS 17, VRSA NARSA VRS1, VRSA NARSA VRS4 and VRSA NARSA VRS10) using broth microdilution. C. difficile strains were grown at 37 °C in a COY anaerobic chamber (5% H2, 10% CO2, 85% N2). H. pylori strains were grown at 37 °C under a microaerobic atmosphere (5% O2, 10% CO2). All facultative anaerobic bacteria were grown at 37 °C with normal atmospheric oxygen levels. All experiments were performed in duplicate with metronidazole, vancomycin, linezolid or colistin as positive controls for relevant strains (see Table 1). Positive growth control of bacteria and DMSO as well as a negative control of only media were included for every plate. Full assay details are provided in the supplementary information.
C. difficile ATCC BAA-1382, ATCC BAA-1803, ATCC 43255 and M7404 heat shocked spore stocks (10 µL) were transferred into the anaerobic chamber and 10 µL streaked onto pre-reduced (at least 2.5 hr in anaerobic chamber) BHIS agar plates supplemented with 0.1% w/v sodium taurocholate (BHIS(TA)). Plates were incubated for 24 hours prior to assay to give colonies of size 1-3mm diameter with characteristic uneven borders.
The minimum inhibition concentration was determined according to the CLSI Methods with modifications in broth and inoculum for C. difficile according to Babakhani et al.^7,8 Briefly, compounds were prepared to 20X final concentration in 100% water, 60% DMSO and 40% water or 60% DMSO and 40% media. The compounds along with standard antibiotics were serially diluted two-fold across the wells of 96-well non-binding surface plates (Non binding surface, Corning). The plates were placed in the anaerobic chamber overnight to reduce. C. difficile bacteria from BHIS(TA) agar plates were cultured anaerobically in BHIS at 37 °C overnight. A sample of culture was then diluted 40-fold in BHIS broth and incubated at 37 °C for approximately 4.5 hrs. The resultant mid-log phase culture (OD600= 0.5-0.6) was diluted to the final concentration of ~1×10^6 CFU/mL, then 50 µL was added to each well of the compound-containing 96-well plates. This gave final cell concentration of 5×10^5 CFU/mL, final volume 100 µL and 3% maximum DMSO concentration. Compound concentration was typically from 64 to 0.03 µg/mL. An antibiotic standard was included on each 96 well plate as well as a positive growth control (no compound) and sterility control (no bacteria). All the plates were covered and incubated at 37 °C for 24 h. MICs were the lowest concentration showing no visible growth.

Experiment [2] has as its system C. difficile NAP1/027 CD26A54_S. As to the kind of experiment: MIC broth microdilution, C. difficile CD26A54_S. It counts as cell-based, Clostridium difficile. The following applies: for MIC: Clostridioides difficile. (Broth dilution looks for growth in wells or tubes with falling amounts of substance.)
Experiment [3] deals with C. difficile NAP1/027 CD26A54_R. The experiment can be described thus: MIC broth microdilution, metronidazole resistant C. difficile CD26A54_R. Type of experiment: cell-based, Clostridium difficile. The following applies: for MIC: Clostridioides difficile.
The test system of experiment [4] is E. histolytica HM1:IMSS trophozoites. As to the kind of experiment: ATP-bioluminescence growth and survival assay, E. histolytica. Type of experiment: cell-based, Entamoeba histolytica. As to conditions: MtzS, 48 h, anaerobic, n = 3. The procedure: (§1) Compounds were tested for antiparasitic activity against E. histolytica (HM1:1MSS strain) and G. lamblia (WB, BRIS/87/HEPU/713 (713), BRIS/83/HEPU/106 (106) and the metronidazole resistant syngeneic line 713-M3 [[15,16]]) using an ATP-bioluminescence based screen for cell growth and survival [[17,18]]. Assay plates were inoculated with trophozoites (5 × 10^3 parasites/well) and incubated in the GasPak™ EZ Anaerobe Gas Generating Pouch Systems (VWR, West Chester, PA) to maintain anaerobic conditions throughout the incubation period. The assays were performed in triplicate using the CellTiter-Glo Luminescent Cell Viability Assay. Metronidazole was used as a positive control.
(§2) Trophozoites of E. histolytica strain HM1:IMSS and G. lamblia strains WB, BRIS/87/HEPU/713 (713),^10 BRIS/83/HEPU/106 (106)^11 and the metronidazole resistant syngenic line 713-M3^10,11 were axenically maintained in TYI-S-33 medium supplemented with penicillin (100 U/ml), streptomycin (100 µg/ml).^12 E. histolytica and G. lamblia trophozoites were counted using a particle counter (Beckman Coulter, Fullerton, CA). All experiments were performed using trophozoites harvested during the logarithmic phase of growth.
(§3) A three-fold serial dilution was then performed yielding a concentration range 0.25-625 µM. From this dilution plate, 4 µL were transferred into the 96-well screen plates followed by addition of 96 µL of trophozoites (5,000 parasites) to yield a final 8-point concentration range spanning 0.01- 25 µM. Assay plates were incubated for 48 h at 37 °C in the GasPak^TM EZ Anaerobe Gas Generating Pouch Systems (VWR, West Chester, PA) to maintain anaerobic condition throughout the incubation period. The assays were performed in triplicate using the CellTiter-Glo Luminescent Cell Viability Assay.^13

The test system of experiment [5] is G. lamblia WB trophozoites. As to the kind of experiment: ATP-bioluminescence growth and survival assay, G. lamblia WB. Type of experiment: cell-based, Giardia lamblia. The following applies: MtzS, 48 h, anaerobic, n = 3. The procedure:
as §1, §2, §3

[6] abbreviates: 24 hr incubation, read-out: MIC C. difficile NAP1/027 CD26A54_S 24 hr.
[7] abbreviates: CD26A54_S, MtzS (intermediary), 48 h growth, read-out: MIC C. difficile NAP1/027 CD26A54_S 48 h.
Where [8] appears, read: 24 hr incubation, read-out: MIC C. difficile NAP1/027 CD26A54_R 24 hr.
[9] abbreviates: CD26A54_R, MtzR, 48 h growth, BHIS broth, n = 8, read-out: MIC C. difficile NAP1/027 CD26A54_R 48 h.

For orientation: EC50 means the concentration at which the effect is half-maximal. The low end stands for a more potent agent, the high end for a less potent agent. With `Cc1ncc([N+](=O)[O-])n1CCn1cc(CN2CCS(=O)(=O)CC2)nn1` [Compound 4o, 1-(2-(2-methyl-5-nitro-1H-imidazol-1-yl)ethyl)-4-((1,1-dioxothiomorpholin-4-yl)methyl)-1H-1,2,3-triazole], the MIC in experiment [1], in experiment [2] (setting [6]), in experiment [2] (setting [7]), in experiment [3] (setting [8]) and in experiment [3] (setting [9]) was above 64 µg/mL in each case. In addition, the EC50 in experiment [4] (Entamoeba histolytica) and in experiment [5] (Giardia duodenalis) was above 25 µM throughout.

On to `Cc1ncc([N+](=O)[O-])n1CCn1cc(-c2cncnc2)nn1` [Compound 4i, 1-(2-(2-methyl-5-nitro-1H-imidazol-1-yl)ethyl)-4-(5-pyrimidinyl)-1H-1,2,3-triazole], for which the MIC amounted to 1 µg/mL (≈ 3.33 µM) in experiment [1]; 1 µg/mL (≈ 3.33 µM) in experiment [2] (setting [6]); 1 µg/mL (≈ 3.33 µM) in experiment [2] (setting [7]); 2 µg/mL (≈ 6.66 µM) in experiment [3] (setting [8]); 4 µg/mL (≈ 13.3 µM) in experiment [3] (setting [9]). The half-maximal effective concentration (EC50) is above 25 µM in experiment [4] (Entamoeba histolytica) and 3.3 µM in experiment [5] (Giardia duodenalis).

As for `Cc1ncc([N+](=O)[O-])n1CCN=[N+]=[N-]` [Compound 3, 1-(2-azidoethyl)-2-methyl-5-nitro-1H-imidazole], the “MIC C. difficile NAP1/027 (footnote d)” value in experiment [1] came to 0.5 µg/mL (≈ 2.55 µM). For the same molecule, the “MIC C. difficile NAP1/027 CD26A54_S 24 hr” value in experiment [2] (24 hr incubation) was determined as 2 µg/mL (≈ 10.2 µM). Further, in experiment [2] (CD26A54_S, MtzS (intermediary), 48 h growth), the “MIC C. difficile NAP1/027 CD26A54_S 48 h” value came out at 2 µg/mL (≈ 10.2 µM). Also, in experiment [3] (24 hr incubation), the “MIC C. difficile NAP1/027 CD26A54_R 24 hr” value is listed as 4 µg/mL (≈ 20.4 µM). In experiment [3] (CD26A54_R, MtzR, 48 h growth, BHIS broth, n = 8), the “MIC C. difficile NAP1/027 CD26A54_R 48 h” value was found to be 8 µg/mL (≈ 40.8 µM). For the same molecule, the EC50 in experiment [4] was determined as 2.1 µM; in experiment [5] it was 1.5 µM.

Turning to `Cc1ncc([N+](=O)[O-])n1CCn1cc(Cn2cccn2)nn1` [Compound 4g, 1-(2-(2-methyl-5-nitro-1H-imidazol-1-yl)ethyl)-4-((1H-pyrazol-1-yl)methyl)-1H-1,2,3-triazole], the MIC stood at 1 µg/mL (≈ 3.31 µM) in experiment [1]; 2 µg/mL (≈ 6.62 µM) in experiment [2] (setting [6]); 2 µg/mL (≈ 6.62 µM) in experiment [2] (setting [7]); 4 µg/mL (≈ 13.2 µM) in experiment [3] (setting [8]); 4 µg/mL (≈ 13.2 µM) in experiment [3] (setting [9]). Moreover, the half-maximal effective concentration (EC50) in experiment [4] (Entamoeba histolytica) was above 25 µM; in experiment [5] (Giardia duodenalis), 4.9 µM.

Take `Cc1ncc([N+](=O)[O-])n1CCn1cc(C(=O)O)nn1` [Compound 4s, 1-(2-(2-methyl-5-nitro-1H-imidazol-1-yl)ethyl)-4-(carboxy)-1H-1,2,3-triazole]: the MIC is 64 µg/mL (≈ 240 µM) in experiment [1]; above 64 µg/mL in experiment [2] (setting [6]); above 64 µg/mL in experiment [2] (setting [7]); above 64 µg/mL in experiment [3] (setting [8]); above 64 µg/mL in experiment [3] (setting [9]). The EC50 in experiment [4] (Entamoeba histolytica) and in experiment [5] (Giardia duodenalis) was above 25 µM throughout.

For `Cc1ncc([N+](=O)[O-])n1CCn1cc(CCO)nn1` [Compound 4p, 1-(2-(2-methyl-5-nitro-1H-imidazol-1-yl)ethyl)-4-(2-hydroxyethyl)-1H-1,2,3-triazole], the MIC in experiment [1] was 8 µg/mL (≈ 30 µM); in experiment [2] (setting [6]) it was 8 µg/mL (≈ 30 µM); in experiment [2] (setting [7]) it was 8 µg/mL (≈ 30 µM); in experiment [3] (setting [8]) it was 8 to 16 µg/mL (≈ 30 to 60.1 µM); in experiment [3] (setting [9]), 16 µg/mL (≈ 60.1 µM). For the same molecule, the EC50 in experiment [4] (Entamoeba histolytica) and in experiment [5] (Giardia duodenalis) was above 25 µM each time.

Consider `Cc1ncc([N+](=O)[O-])n1CCn1cc(-c2ncccn2)nn1` [Compound 4j, 1-(2-(2-methyl-5-nitro-1H-imidazol-1-yl)ethyl)-4-(2-pyrimidinyl)-1H-1,2,3-triazole], for which the MIC is 2 µg/mL (≈ 6.66 µM) in experiment [1]; 2 µg/mL (≈ 6.66 µM) in experiment [2] (setting [6]); 2 to 4 µg/mL (≈ 6.66 to 13.3 µM) in experiment [2] (setting [7]); 4 µg/mL (≈ 13.3 µM) in experiment [3] (setting [8]); 4 µg/mL (≈ 13.3 µM) in experiment [3] (setting [9]). In addition, the EC50 was above 25 µM in experiment [4] (Entamoeba histolytica) and 1.7 µM in experiment [5] (Giardia duodenalis).

As for `Cc1ncc([N+](=O)[O-])n1CCn1cc(CN)nn1.O=C(O)C(F)(F)F` [Compound 4t, 1-(2-(2-methyl-5-nitro-1H-imidazol-1-yl)ethyl)-4-(aminomethyl)-1H-1,2,3-triazole trifluoroacetate salt], the MIC in experiment [1], in experiment [2] (setting [6]), in experiment [2] (setting [7]), in experiment [3] (setting [8]) and in experiment [3] (setting [9]) was above 64 µg/mL in each case. Moreover, the EC50 in experiment [4] (Entamoeba histolytica) and in experiment [5] (Giardia duodenalis) was above 25 µM each time.

`Cc1ncc([N+](=O)[O-])n1CCn1cc(CO)nn1` [Compound 4q, 1-(2-(2-methyl-5-nitro-1H-imidazol-1-yl)ethyl)-4-(hydroxymethyl)-1H-1,2,3-triazole]: the MIC in experiment [1] is 16 µg/mL (≈ 63.4 µM); in experiment [2] (setting [6]) it was 16 µg/mL (≈ 63.4 µM); in experiment [2] (setting [7]), 16 to 32 µg/mL (≈ 63.4 to 127 µM); in experiment [3] (setting [8]), 16 µg/mL (≈ 63.4 µM); in experiment [3] (setting [9]), 16 µg/mL (≈ 63.4 µM). In addition, the concentration giving a half-maximal response (EC50) in experiment [4] (Entamoeba histolytica) and in experiment [5] (Giardia duodenalis) was above 25 µM each time.

Consider `Cc1ncc([N+](=O)[O-])n1CCn1cc(CCC(=O)O)nn1` [Compound 4r, sodium 1-(2-(2-methyl-5-nitro-1H-imidazol-1-yl)ethyl)-4-(carboxyethyl)-1H-1,2,3-triazole], for which the MIC in experiment [1], in experiment [2] (setting [6]), in experiment [2] (setting [7]), in experiment [3] (setting [8]) and in experiment [3] (setting [9]) was above 64 µg/mL throughout. The EC50 in experiment [4] (Entamoeba histolytica) and in experiment [5] (Giardia duodenalis) was above 25 µM throughout.
